Key:
SGC-7901 = experiment: Cytotoxicity against human SGC-7901 cells assessed as reduction in cell viability measured after 48 hrs by MTT colorimetric assay; format: functional, cell-based; details: SGC-7901, 48 h
HepG2 = experiment: Cytotoxicity against human HepG2 cells assessed as reduction in cell viability measured after 48 hrs by MTT colorimetric based assay; format: functional; details: HepG2, 48 h
[1] = Antioxidant activity assessed as DPPH radical scavenging activity; format: functional
MCF7 [2] = experiment: Antiproliferative activity against human MCF7 cells assessed as reduction in cell viability incubated for 120 hrs by MTT assay; format: functional, cell-based; details: MCF7, 120 h
HeLa [3] = experiment: Antiproliferative activity against human HeLa cells assessed as reduction in cell growth; format: functional, cell-based
RPMI-8226 = experiment: Growth inhibition of human RPMI-8226 cells; format: functional
CCRF-CEM = experiment: Growth inhibition of human CCRF-CEM cells; format: functional
[4] = Antioxidant activity assessed as DPPH radical scavenging activity measured after 30 mins; format: functional
MCF7 [5] = experiment: Antiproliferative activity against human MCF7 cells assessed as inhibition of cell growth after overnight incubation by MTT assay; format: functional, cell-based
HT-29 = experiment: Antiproliferative activity against human HT-29 cells assessed as inhibition of cell proliferation by MTT assay; format: functional, cell-based
HeLa [6] = experiment: Antiproliferative activity against human HeLa cells assessed as inhibition of cell growth incubated for 72 hrs by MTT assay; format: functional, cell-based
Alpha glucosidase = Alpha glucosidase (Homo sapiens, UniProt O43451+P10253+P14410+Q2M2H8); experiment: Inhibition of alpha glucosidase (unknown origin) measured after 60 mins; format: protein assay
[7] = system: Human immunodeficiency virus 1; experiment: Antiviral activity against HIV-1 harboring integrase L74M mutant; format: functional, organism-based
MDA-MB-453 = experiment: Antiproliferative activity against human MDA-MB-453 cells assessed as reduction in cell growth after 72 hrs by MTT assay; format: functional, cell-based; details: MDA-MB-453, 72 h
CAMA-1 = experiment: Antiproliferative activity against human CAMA-1 cells assessed as cell growth inhibition; format: functional, cell-based
MCF7 [8] = experiment: Cytotoxicity against human MCF7 cells assessed as reduction in cell viability after 48 hrs by SRB assay; format: functional, cell-based; details: MCF7, 48 h
A549 [9] = experiment: Antiproliferative activity against human A549 cells assessed as reduction in cell viability by MTT assay; format: functional, cell-based
Bel-7402 = experiment: Cytotoxicity against human Bel-7402 cells assessed as reduction in cell viability measured after 72 hrs by MTT assay; format: functional, cell-based; details: Bel-7402, 72 h
H4 = experiment: Antiproliferative activity against human H4 cells assessed as cell growth inhibition; format: functional, cell-based
HeLa [10] = experiment: Cytotoxicity against human HeLa cells assessed as reduction in cell viability; format: functional, cell-based
SW480 = experiment: Cytotoxicity against human SW480 cells assessed as cell growth inhibition; format: functional, cell-based
HL-60 = experiment: Cytotoxicity against human HL-60 cells assessed as reduction in cell viability incubated for 48 hrs by MTT assay; format: functional, cell-based; details: HL-60, 48 h
[11] = Cytotoxicity against human A549 cells assessed as cell growth inhibition measured after 24 hrs by MTT assay; format: functional, cell-based
SMMC-7721 = experiment: Cytotoxicity against human SMMC-7721 cells assessed as reduction in cell viability incubated for 48 hrs by MTT assay; format: functional, cell-based; details: SMMC-7721, 48 h
MCF7 [12] = experiment: Cytotoxicity against human MCF7 cells assessed as reduction in cell growth; format: functional, cell-based
Candida albicans = experiment: Antibacterial activity against Candida albicans assessed as reduction in bacterial growth; format: functional
Staphylococcus aureus = experiment: Antibacterial activity against Staphylococcus aureus assessed as reduction in microbial growth; format: functional
Aspergillus niger = experiment: […] against Aspergillus niger assessed as […] incubated for 24 hrs by agar disc diffusion assay; format: functional
Escherichia coli = experiment: Antibacterial activity against Escherichia coli assessed as reduction in bacterial cell viability; format: functional
Bacillus subtilis = experiment: Antibacterial activity against Bacillus subtilis assessed as reduction in microbial growth; format: functional
Klebsiella pneumoniae = experiment: Antibacterial activity against Klebsiella pneumoniae assessed as reduction in bacterial growth by broth microdilution method; format: functional
Fusarium oxysporum = experiment: Antifungal activity against Fusarium oxysporum assessed as inhibition of fungal growth; format: functional
A549 [13] = experiment: Antiproliferative activity against human A549 cells assessed as reduction in cell viability incubated for 48 hrs by MTT assay; format: functional, cell-based; details: A549, 48 h
K562 = experiment: Antiproliferative activity against human K562 cells assessed as cell growth inhibition by MTT assay; format: functional, cell-based

## C[C@H]1[C@H](C)CC[C@]2(C(=O)O)CC[C@]3(C)C(=CC[C@@H]4[C@@]5(C)CC[C@H](O)C(C)(C)[C@@H]5CC[C@]43C)[C@H]12 [URSOLIC ACID]
SGC-7901
  IC50: > 20000 nM
HepG2
  IC50: > 20000 nM

## O=C1O[C@H]([C@@H](O)CO)C([O-])=C1O.[Na+] [SODIUM ASCORBATE]
[1]
  IC50: 12800 nM

## COc1ccc2[nH]cc(C(=O)C(=O)N[C@H]3c4cc5c(cc4[C@@H](c4cc(OC)c(OC)c(OC)c4)[C@H]4C(=O)OC[C@@H]43)OCO5)c2c1
MCF7 [2]
  IC50: 1960 nM
HeLa [3]
  IC50: 1960 nM

## C=C1C(=O)O[C@H]2[C@H]1CC1C(COC(=O)c3c[nH]c4ccccc34)=CCC[C@@]3(C)O[C@@]123 (some centres undefined)
RPMI-8226
  GI50: 40 nM
CCRF-CEM
  GI50: 50 nM

## O=C(/C=C/c1ccc(O)c(O)c1)Nc1ccc2[nH]ccc2c1
[4]
  EC50: 51000 nM

## O=C(/C=C/c1ccc(O)c(O)c1)NCCc1c[nH]c2ccc(O)cc12 [N-CAFFEOYLSEROTONIN]
[4]
  EC50: 8100 nM

## COC(=O)c1[nH]c2ccccc2c1/C=C/C(=O)c1cc(OC)c(OC)c(OC)c1
MCF7 [5]
  IC50: 1100 nM
HT-29
  IC50: 7300 nM
HeLa [6]
  IC50: 2000 nM

## CCOC(=O)c1[nH]c2ccccc2c1/C=C/C(=O)c1cc(OC)c(OC)c(OC)c1
MCF7 [5]
  IC50: 1800 nM
HT-29
  IC50: 440 nM
HeLa [6]
  IC50: 2100 nM

## C=C(C)[C@@H]1CC[C@]2(C(=O)NCC(=O)O)CC[C@]3(C)[C@H](CC[C@@H]4[C@@]5(C)Cc6c([nH]c7ccccc67)C(C)(C)[C@@H]5CC[C@]43C)[C@@H]12
Alpha glucosidase
  IC50: 1800 nM

## C=C1C(=O)O[C@H]2[C@H]1CC1C(COC(=O)/C=C/c3c[nH]c4ccccc34)=CCC[C@@]3(C)O[C@@]123 (some centres undefined)
RPMI-8226
  GI50: 30 nM
CCRF-CEM
  GI50: 70 nM

## C=C(C)[C@@H]1CC[C@]2(C(=O)N3CCN(C(=O)/C=C/c4ccc5[nH]ccc5c4)CC3)CC[C@]3(C)[C@H](CC[C@@H]4[C@@]5(C)CC[C@H](OC(=O)CC(C)(C)C(=O)O)C(C)(C)[C@@H]5CC[C@]43C)[C@@H]12
[7]
  IC50: 50 nM

## COc1ccc2c(/C=N/[C@H]3c4cc5c(cc4[C@@H](c4cc(OC)c(OC)c(OC)c4)[C@H]4C(=O)OC[C@@H]43)OCO5)cn(Cc3ccccc3F)c2c1
HeLa [3]
  IC50: 790 nM

## CC1(C)CCC(C)(C)c2cc(C(=O)/C=C/c3c[nH]c4ccccc34)ccc21
MDA-MB-453
  IC50: < 10 nM
CAMA-1
  IC50: < 10 nM

## C[C@@H]1CC[C@H]2[C@@H](C)C(OC(=O)c3cc4ccccc4[nH]3)O[C@@H]3O[C@@]4(C)CC[C@@H]1[C@]32OO4 (some centres undefined)
MCF7 [8]
  IC50: 6780 nM
A549 [9]
  IC50: 12900 nM

## C=C1C(=O)O[C@H]2[C@H]1CC1C(COC(=O)c3cc4ccccc4[nH]3)=CCC[C@@]3(C)O[C@@]123 (some centres undefined)
RPMI-8226
  GI50: 260 nM
CCRF-CEM
  GI50: 280 nM

## COc1ccc2[nH]c(C(=O)OC3O[C@@H]4O[C@@]5(C)CC[C@H]6[C@H](C)CC[C@@H]([C@H]3C)[C@@]46OO5)cc2c1 (some centres undefined)
MCF7 [8]
  IC50: 14500 nM
A549 [9]
  IC50: 13400 nM

## CC1=C(O)C(=O)C=C2C1=CC=C1[C@@]2(C)CC[C@@]2(C)[C@@H]3C[C@](C)(C(=O)O)CC[C@]3(C)CC[C@]12C [CELASTROL]
Bel-7402
  IC50: 1550 nM
H4
  IC50: 2090 nM

## COc1ccc(/C=C\c2cc(OC)c(OC)c(OC)c2)cc1OC(=O)c1cccc(-n2cc(CCOC(=O)[C@H](N)Cc3cn(C)c4ccccc34)nn2)c1
HeLa [10]
  IC50: 70 nM

## COC(=O)[C@]1(C)CC[C@]2(C)CC[C@]3(C)C4=CC(c5cn(C)c6cc(Cl)ccc56)=C5C(=CC(OC)C(OC)=C5C)[C@]4(C)CC[C@@]3(C)[C@@H]2C1 (some centres undefined)
Bel-7402
  IC50: 10 nM
H4
  IC50: 2030 nM

## COC(=O)C1=CO[C@@H](OC)[C@@H]2C(C(NCCc3c[nH]c4ccc(OC)cc34)NCCc3c[nH]c4ccc(OC)cc34)=CC[C@H]12
SW480
  IC50: 890 nM
HL-60
  IC50: 430 nM
[11]
  IC50: 1180 nM
SMMC-7721
  IC50: 690 nM
MCF7 [12]
  IC50: 580 nM

## GENTAMICIN
Candida albicans
  MIC: 28 µg/mL
Staphylococcus aureus
  MIC: 26 µg/mL
Aspergillus niger
  MIC: 27 µg/mL
Escherichia coli
  MIC: 26 µg/mL
Bacillus subtilis
  MIC: 28 µg/mL
Klebsiella pneumoniae
  MIC: 26 µg/mL
Fusarium oxysporum
  MIC: 27 µg/mL

## COc1ccc(OC)c(-c2nc(C(=O)N[C@H]3c4cc5c(cc4[C@@H](c4cc(OC)c(OC)c(OC)c4)[C@H]4C(=O)OC[C@@H]43)OCO5)cc3c2[nH]c2ccccc23)c1
A549 [13]
  IC50: 1870 nM

## COc1cc([C@@H]2c3cc4c(cc3[C@H](OC(=O)c3c[nH]c5ccccc35)[C@H]3COC(=O)[C@H]23)OCO4)cc(OC)c1OC
HeLa [3]
  IC50: 2200 nM

## COc1cc([C@@H]2c3cc4c(cc3[C@H](NC(=O)C(=O)c3cn(Cc5ccccc5Cl)c5ccc(F)cc35)[C@H]3COC(=O)[C@H]23)OCO4)cc(OC)c1OC
K562
  IC50: 400 nM
HeLa [3]
  IC50: 150 nM

## COC(=O)c1[nH]c2ccc(OC)cc2c1/C=C/C(=O)c1cc(OC)c(OC)c(OC)c1
MCF7 [5]
  IC50: 590 nM
HT-29
  IC50: 1000 nM
HeLa [6]
  IC50: 2400 nM

## COc1cc([C@@H]2c3cc4c(cc3[C@H](OC(=O)c3ccc5cc[nH]c5c3)[C@H]3COC(=O)[C@H]23)OCO4)cc(OC)c1OC
K562
  IC50: 100 nM

## C=C(C)[C@@H]1CC[C@]2(C(=O)O)CC[C@]3(C)[C@H](CC[C@@H]4[C@@]5(C)CC[C@H](OC(=O)CC(C)(C)C(=O)O)C(C)(C)[C@@H]5CC[C@]43C)[C@@H]12 [BEVIRIMAT]
[7]
  IC50: 65 nM

## C=C1C(=O)O[C@@H]2C3O[C@]3(C)CC/C=C(\C)CC[C@@H]12 (some centres undefined)
RPMI-8226
  GI50: 8200 nM
CCRF-CEM
  GI50: 9160 nM

## CCOC(=O)c1[nH]c2ccc(OC)cc2c1/C=C/C(=O)c1cc(OC)c(OC)c(OC)c1
MCF7 [5]
  IC50: 460 nM
HT-29
  IC50: 390 nM
HeLa [6]
  IC50: 330 nM

## COc1cc([C@@H]2c3cc4c(cc3[C@H](NC(=O)c3cc5c([nH]c6ccccc65)c(-c5ccc(F)c(F)c5)n3)[C@H]3COC(=O)[C@H]23)OCO4)cc(OC)c1OC
A549 [13]
  IC50: 2240 nM

## O=C1O[C@H]([C@@H](O)CO)C(O)=C1O [ASCORBIC ACID]
[4]
  EC50: 23000 nM

## C=C(C)[C@@H]1CC[C@]2(C(=O)O)CC[C@]3(C)[C@H](CC[C@@H]4[C@@]5(C)Cc6c([nH]c7ccccc67)C(C)(C)[C@@H]5CC[C@]43C)[C@@H]12
Alpha glucosidase
  IC50: 40 nM

## COc1cc([C@@H]2c3cc4c(cc3[C@H](NC(=O)C(=O)c3c[nH]c5ccc(C(=O)NC(C)C)cc35)[C@H]3COC(=O)[C@H]23)OCO4)cc(OC)c1OC
HeLa [3]
  IC50: 3920 nM

## COC(=O)[C@]1(C)CC[C@]2(C)CC[C@]3(C)C4=CC(c5c[nH]c6cc(C)ccc56)=C5C(=CC(OC)C(OC)=C5C)[C@]4(C)CC[C@@]3(C)[C@@H]2C1 (some centres undefined)
Bel-7402
  IC50: 20 nM

## COc1cc([C@@H]2c3cc4c(cc3[C@H](NCc3c[nH]c5ccccc35)[C@H]3COC(=O)[C@H]23)OCO4)cc(OC)c1OC
HeLa [3]
  IC50: 100 nM

## CCOC(=O)c1[nH]c2cc(OC)ccc2c1/C=C/C(=O)c1cc(OC)c(OC)c(OC)c1
MCF7 [5]
  IC50: 240 nM
HT-29
  IC50: 130 nM
HeLa [6]
  IC50: 840 nM

## COc1ccc(/C=C\c2cc(OC)c(OC)c(OC)c2)cc1O [COMBRETASTATIN A4]
HeLa [10]
  IC50: 210 nM

## COC(=O)C1=CO[C@@H](OC)[C@@H]2C(C(NCCc3c[nH]c4ccccc34)NCCc3c[nH]c4ccccc34)=CC[C@H]12
SW480
  IC50: 2530 nM
HL-60
  IC50: 900 nM
[11]
  IC50: 3640 nM
SMMC-7721
  IC50: 3520 nM
MCF7 [12]
  IC50: 3100 nM

— ChEMBL document CHEMBL5356986, “Research status of indole-modified natural products” (RSC Med Chem, 2023)
